Reference: publication PMC6592895, “Unusual Flavones from Primula macrocalyx as Inhibitors of OAT1 and OAT3 and as Antifungal Agents against Candida rugosa” (Scientific Reports, 2019)
pIC50: −log10 of the molar value. In brackets after ≈: the same amount, converted by molar mass. Where two headings read alike, the source gives them in different places.

How the values were obtained:
OAT3 [1] = test system: OAT3; set-up: method as in PMID 30248705; conditions: previous study; cited from earlier work
OAT1 [2] = test system: OAT1; set-up: method as in PMID 30248705; conditions: previous study; cited from earlier work
[3] = test system: Candida rugosa (ATCC 10571); experiment: Broth microdilution antifungal assay; assay type: cell-based; conditions: YM broth, 25 °C, read-out: MICs C. rugosa
Protocol: Antifungal activity against C. rugosa (ATCC 10571) was measured as previously described using a broth microdilution method[36]–[38] with minor modifications. The assay was performed in sterile 96-well microtiter plates. Briefly, YM broth was prepared and autoclaved for 20 min at 121 °C, then allowed to cool to room temperature (25 °C). C. rugosa was dispersed in YM broth to an optical density of 1 UA at 600 nm (approximately 1 × 10^7 cfu/mL) using uninoculated broth as the blank. A 198 µL aliquot of the resulting fungal suspension was dispensed into each well of a 96-well plate. Stock solutions of the twelve compounds were prepared in DMSO at a concentration of 50 mM. The stock solutions were diluted to a range of final concentrations (500–0.14 µM) in YM broth such that the final DMSO concentration was no higher than 1%, v/v. A 2 µL aliquot of the resulting test samples was transferred to each well of the plate. Plates were incubated at 25 °C for 24 h prior to measurement of the optical density of each well at 600 nm. […] Amphotericin B was used as positive control.

Candida rugosa = experiment: Agar well diffusion antimicrobial assay; assay type: cell-based; conditions: Diutina rugosa, fraction at 1 mg/mL in DMSO, read-out: diameter zone of inhibition
Protocol: Approximately 15 mL aliquots of each medium were dispensed into petri plates and allowed to solidify, then incubated for 24 h to ensure sterility prior to use. Microbial suspensions (0.5 mL) at a density of 5 × 10^6 cfu/mL were inoculated onto the sterile media and allowed to stand for 10–20 min before wells were cut into the agar using a sterile pipet tip. A 10 µL aliquot of a DMSO solution of plant extracts (1 mg/mL) or fractions (2, 0.2, 0.02 mg/mL) were pipetted into each well. Similarly, 10 µL portions of DMSO and a solution of an appropriate antibiotic standard were applied to each plate as negative and positive controls, respectively. All treated plates were incubated for 24 h in incubators at appropriate temperatures. Zones of inhibition were measured in millimeters. The assays were performed in triplicate.

OAT1 [4] = conditions: cited from earlier work
OAT3 [5] = target: T1, OAT3 (Homo sapiens, UniProt Q8TCC7); experiment: 6-CF uptake assay in HEK-OAT3 cells
T1 sequence (Q8TCC7 1-542): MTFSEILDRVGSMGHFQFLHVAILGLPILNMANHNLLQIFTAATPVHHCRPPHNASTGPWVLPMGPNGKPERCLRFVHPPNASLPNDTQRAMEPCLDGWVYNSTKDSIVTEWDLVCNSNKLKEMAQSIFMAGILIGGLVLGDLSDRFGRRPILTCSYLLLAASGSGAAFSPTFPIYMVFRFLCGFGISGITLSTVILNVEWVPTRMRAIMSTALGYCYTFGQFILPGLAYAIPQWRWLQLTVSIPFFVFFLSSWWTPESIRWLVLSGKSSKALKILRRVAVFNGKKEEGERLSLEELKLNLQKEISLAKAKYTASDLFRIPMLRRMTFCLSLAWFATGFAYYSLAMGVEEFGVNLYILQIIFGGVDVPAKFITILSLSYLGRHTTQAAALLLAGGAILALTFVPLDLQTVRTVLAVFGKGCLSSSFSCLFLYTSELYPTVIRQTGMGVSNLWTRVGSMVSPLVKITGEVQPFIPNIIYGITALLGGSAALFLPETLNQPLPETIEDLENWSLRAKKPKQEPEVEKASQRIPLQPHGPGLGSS
Protocol: (§1) The interactions of 12 flavones with the uptake of 6-CF in HEK-OAT1 and HEK-OAT3 cells were evaluated. This cell uptake assay was performed as previously described[14],[35]. A density of 5 × 10^4 cells were seeded per well in 96-well culture plates precoated with poly-D-lysine. […] Uptake was terminated by adding 100 µL ice-cold uptake buffer, and quickly washing the cells in each well three times with ice-cold phosphate-buffered saline (PBS). The cells were lysed with 100 µL of 20 mM Tris-HCl containing 0.2% TritonX-100. […] The protein content of the cell lysate was quantified using a BCA Protein Assay Kit. The intensity of fluorescence was standardized against total protein content, and measured in triplicate. The stock solutions of tested compounds were dissolved in DMSO with a final concentration of 50 mM and dilutions were made using uptake buffer.
(§2) For the uptake experiments, data were analyzed with a two-tailed unpaired Student’s t-test.

OAT1 [6] = target: T2, OAT1 (Homo sapiens, UniProt Q4U2R8); experiment: 6-CF uptake assay in HEK-OAT1 cells; conditions: for inhibition at 5 min, 50 µM: human, HEK293 cells stably overexpressing OAT1 (HEK-OAT1), pH 7.2, probe 6-CF (4 µM)
T2 sequence (Q4U2R8 1-563): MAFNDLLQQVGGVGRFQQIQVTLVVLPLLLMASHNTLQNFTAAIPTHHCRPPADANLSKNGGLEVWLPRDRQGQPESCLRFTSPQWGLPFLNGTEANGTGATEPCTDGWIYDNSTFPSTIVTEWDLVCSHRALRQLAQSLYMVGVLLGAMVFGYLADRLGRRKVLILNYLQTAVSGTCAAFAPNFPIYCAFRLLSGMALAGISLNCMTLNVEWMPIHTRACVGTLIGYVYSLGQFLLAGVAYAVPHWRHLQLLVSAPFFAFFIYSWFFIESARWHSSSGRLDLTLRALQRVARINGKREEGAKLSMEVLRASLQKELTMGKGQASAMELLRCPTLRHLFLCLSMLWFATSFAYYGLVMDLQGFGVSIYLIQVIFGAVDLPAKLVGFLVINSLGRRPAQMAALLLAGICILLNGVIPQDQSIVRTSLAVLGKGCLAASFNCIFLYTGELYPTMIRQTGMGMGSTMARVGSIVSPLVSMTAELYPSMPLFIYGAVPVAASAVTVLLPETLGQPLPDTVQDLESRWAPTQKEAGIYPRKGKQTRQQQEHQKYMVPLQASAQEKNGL
Protocol: as §1, §2

OAT1 [7] = conditions: cited from earlier work; remark: listed apart in the source
OAT1 [8] = conditions: read-out: IC50 OAT1; assay similar to that used in this study; cited from earlier work
OAT3 [9] = conditions: cited from earlier work
OAT3 [10] = conditions: read-out: IC50 OAT3; biflavonoids from Juniperus oblonga; cited from earlier work
Oat3 [11] = conditions: rat, in vivo, po; cited from earlier work
[12] = Diutina rugosa, ATCC10571, 24 h

Row | SMILES | MIC [3, 12] [µM] | pIC50 (OAT3 [5]) | pIC50 (OAT1 [6]) | also measured
1 | COc1cc2c(=O)c(-c3ccccc3O)coc2c(OC)c1OC [2′-hydroxy-6,7,8-trimethoxyisoflavone] | – | – | – | pIC50 (OAT3 [1]): 5.06; pIC50 (OAT1 [2]): 5.04
2 | COc1c(O)cc2c(=O)c(-c3ccccc3O)coc2c1OC [6,2′-dihydroxy-7,8-dimethoxyisoflavone] | – | – | – | pIC50 (OAT3 [1]): 4.75
3 | COc1cc2c(=O)c(-c3ccccc3O)coc2c(OC)c1O [7,2′-dihydroxy-6,8-dimethoxyisoflavone] | – | – | – | pIC50 (OAT3 [1]): 5.25
4 | COc1ccc2c(=O)cc(-c3ccccc3)oc2c1 [7-methoxyflavone] | – | – | – | pIC50 (OAT3 [1]): 5.24; pIC50 (OAT1 [2]): 5.44
5 | C[C@@H]1[C@H](O)[C@@H](C)/C=C/C=C/C=C/C=C/C=C/C=C/C=C/[C@H](O[C@@H]2O[C@H](C)[C@@H](O)[C@H](N)[C@@H]2O)C[C@@H]2O[C@](O)(C[C@@H](O)C[C@@H](O)[C@H](O)CC[C@@H](O)C[C@@H](O)CC(=O)O[C@H]1C)C[C@H](O)[C@H]2C(=O)O [Amphotericin B, reference compound] | 0.4 (≈ 0.37 µg/mL) | – | – | zone of inhibition at 1000 µg/mL (Candida rugosa): 11 mm
6 | O=c1cc(-c2ccc(O)cc2)oc2cc(O)cc(O)c12 [Apigenin] | – | – | – | pIC50 (OAT1 [4]): 6.13
7 | COc1cccc(-c2cc(=O)c3ccccc3o2)c1 [Compound 1, 3′-methoxyflavone] | > 500 | – | – | inhibition at 5 min, 50 µM (OAT3 [5]; human, HEK293 cells stably overexpressing OAT3 (HEK-OAT3), pH 7.2, probe 6-CF (4 µM)): < 70%; inhibition at 5 min, 50 µM (OAT1 [6]): < 70%
8 | O=c1cc(-c2ccccc2)oc2ccccc12 [Compound 2, flavone] | 500 (≈ 111 µg/mL) | 5.34 | 5.03 | –
9 | COc1ccccc1-c1cc(=O)c2ccccc2o1 [Compound 3, 2′-methoxyflavone] | > 500 | 5.20 | 5.54 | –
10 | COc1ccc(OC)c(-c2cc(=O)c3ccccc3o2)c1 [Compound 4, 2′,5′-dimethoxyflavone] | > 500 | 4.92 | 4.48 | –
11 | COc1ccc(O)cc1-c1cc(=O)c2ccccc2o1 [Compound 5, 2′-methoxy-5′-hydroxyflavone] | > 500 | 4.56 | 4.57 | –
12 | COc1cc(-c2cc(=O)c3ccccc3o2)cc(O)c1OC [Compound 6, 3′-hydroxy-4′,5′-dimethoxyflavone] | > 500 | 5.29 | 5.49 | –
13 | COc1ccc(OC)c(-c2cc(=O)c3c(OC)c(OC)ccc3o2)c1OC [Compound 8, 5,6,2′,3′,6′-pentamethoxyflavone] | < 2 | 5.13 | 5.00 | MIC ([3]; 24 h): 1.2 µM (≈ 0.447 µg/mL)
14 | O=c1cc(-c2cccc(O)c2)oc2ccccc12 [Compound 9, 3′-hydroxyflavone] | > 500 | 5.10 | 4.94 | –
15 | O=c1cc(-c2ccccc2O)oc2ccccc12 [Compound 10, 2′-hydroxyflavone] | > 500 | 4.73 | – | inhibition at 5 min, 50 µM (OAT1 [6]): < 70%
16 | COc1cccc(OC)c1-c1cc(=O)c2c(OC)c(OC)cc(OC)c2o1 [Compound 11, 5,6,8,2′,6′-pentamethoxyflavone] | > 500 | 4.96 | – | inhibition at 5 min, 50 µM (OAT1 [6]): < 70%
17 | COc1ccccc1-c1cc(=O)c2c(OC)c(OC)ccc2o1 [Compound 12, 5,6,2′-trimethoxyflavone] | < 2 | 5.54 | 5.02 | MIC ([3]; 24 h): 2.0 µM (≈ 0.625 µg/mL)
18 | O=c1c(O)c(-c2ccc(O)cc2O)oc2cc(O)cc(O)c12 [Morin] | – | – | – | pIC50 (OAT1 [7]; read-out: IC50 OAT1, PAH uptake assay in LLC-PK1 cells): > 6.52
19 | COc1c(O)cc(O)c2c(=O)cc(-c3ccccc3)oc12 [Wogonin] | – | – | – | pIC50 (OAT1 [8]): 5.27; pIC50 (OAT3 [9]; read-out: IC50 OAT3, assay similar to that used in this study): 5.89
20 | O=c1cc(-c2ccc(O)c(-c3c(O)cc(O)c4c(=O)cc(-c5ccc(O)cc5)oc34)c2)oc2cc(O)cc(O)c12 [amentoflavone] | – | – | – | pIC50 (OAT3 [10]): 5.70; effect on pharmacokinetic parameters of furosemide (substrate of Oat3) (Oat3 [11]): markedly altered
21 | O=c1cc(-c2ccccc2)oc2cc(O)c(O)c(O)c12 [baicalein] | – | – | – | pIC50 (OAT3 [9]): 5.62
22 | O=c1cc(-c2ccc(O)cc2)oc2c(-c3c(O)cc(O)c4c(=O)cc(-c5ccc(O)cc5)oc34)c(O)cc(O)c12 [cupressuflavone] | – | – | – | pIC50 (OAT3 [10]): < 4.30
23 | O=c1cc(-c2ccc(O)c(O)c2)oc2cc(O)cc(O)c12 [luteolin] | – | – | – | pIC50 (OAT1 [7]): 6.33
24 | COc1ccc(-c2cc(=O)c3c(O)cc(O)c(-c4cc(-c5cc(=O)c6c(O)cc(O)cc6o5)ccc4O)c3o2)cc1 [podocarpusflavone A] | – | – | – | pIC50 (OAT3 [10]): 5.42
